# Data: US9907791B2, “Ron inhibitors for use in preventing and treating bone loss” (UNIVERSITY OF UTAH RESEARCH FOUNDATION, priority 2014, dated 2018)
# Assays:
# [1] = Human plasma CTX levels, Phase I patients; format: in vivo
# Excerpt: All samples were de-identified and the experiments were approved by the University of Utah Institutional Review Board. Plasma samples were submitted to ARUP for clinical testing of CTX. For BSAP, the Human Bone Panel I capture plate with the Human Alkaline Phosphatase detection kit was utilized (Meso Scale Discovery, Rockville, Md.; […]-2) to measure BSAP levels in undiluted plasma samples per the manufacturer's protocol. ASLAN002 is currently in Phase I testing as an anti-cancer agent (NCT01721148). Regardless of cancer diagnosis, and even in the absence of bone metastasis, RON inhibition might affect normal bone turnover, especially in postmenopausal women due to their high rate of bone loss. Plasma samples from early cohorts of Phase I patients were examined for evidence of bone turnover at baseline and after treatment with ASLAN002, using a standard clinical test to detect cleaved bone-derived collagen in plasma (beta-cross-linked C-telopeptide, or CTX). […] Shown in FIG. 15A is quantification of the percent change in plasma CTX levels (compared to baseline prior to drug treatment) in blood plasma of patients receiving ASLAN002 in the Phase I clinical trial. Most patients received ASLAN002 for 28 days; the exceptions in duration are noted (*15 days and ^84 days). Dark bars represent males, and light bars represent females. […] In this analysis, all subjects except one were >50 years old; women older than 50 were expected to have the greatest amount of physiologic bone turnover due to menopause. None of the patients analyzed were treated concurrently with anti-osteoporotic agents. […] Shown in FIG. 15B is quantification of the percent change in BSAP levels (compared to baseline) in blood plasma of patients receiving ASLAN002. The patients are the same as those shown in FIG. 15A, except those receiving only 15 days of ASLAN002 were not tested for BSAP. Dark bars represent males, and light bars represent females. Note that these patients were not selected based on a diagnosis of bone metastasis; rather, markers of bone turnover in patients with various cancer diagnoses who participated in the Phase I trial of ASLAN002 were simply assessed.
# [2] = test system: ERK; test: Western blot of osteoclast lysates, ERK; format: cell-based, mice; conditions: osteoclasts
# Experimental: (§1) Cells were serum starved (0.5% FBS) for 3 hours prior to lysate collection. Inhibitors were added 1 hour prior to lysis and MSP was added 15 min prior to lysis when indicated. Cells were washed with 1×PBS and harvested in lysis buffer (25 mM Tris-HCl, pH 7.5, 0.42 M NaCl, 1.5 mM MgCl2, 0.5 mM EDTA, 1 mM DTT, 25% sucrose, and 0.1% Triton X-100) plus 100× protease arrest (Bioscience, Bozeman, Mont.) and 100× orthovanadate. Primary antibodies used for immunoblotting include: anti-MSP (Santa Cruz, sc-6090, Dallas, Tex.) at a 1:250 dilution, anti-pan Akt (Cell Signaling, #4691S, Beverly, Mass.) at a 1:1000 dilution, anti-pan Erk (Cell Signaling, #4695, Beverly, Mass.) at a 1:1000 dilution, anti-phospho Akt (Cell Signaling, #9271 L, Beverly, Mass.) at a 1:500 dilution, anti-phospho Erk (Cell Signaling, #4370S, Beverly, Mass.) at a 1:500 dilution, anti-Src (Cell Signaling, #2110, Beverly, Mass.) at a 1:500 dilution, and anti-phospho Src (Y416) (Cell Signaling, #2113, Beverly, Mass.) at a 1:500 dilution. The secondary antibodies used were HRP-conjugated anti-goat IgG (Santa Cruz, Dallas, Tex.) and anti-rabbit IgG (Santa Cruz, Dallas, Tex.). Chemiluminescent signals were detected using Immun-Star HRP (BioRad, Hercules, Calif.).
# [3] = test system: bone marrow osteoclasts; test: Osteoclast resorption assay; format: cell-based, mice; conditions: WT osteoclasts, inhibitors 10 μM or muRANK-Fc 10 μg/mL daily day 9 to 12
# Experimental: Bone marrow osteoclasts were generated from 6 to 8 week old WT and RonTK−/− mice. Briefly, bone marrow was isolated from hindlimb bones and plated in α-MEM media containing 10% heat-inactivated fetal bovine serum (FBS, Sigma, St. Louis, Mo.), 100 units/mL penicillin-streptomycin (Hyclone), and 33 ng/mL human macrophage colony-stimulating factor (hM-CSF) (PeproTech, Rocky Hill, N.J.) for 24 hours. Non-adherent cells were collected and frozen for later use. To assess resorption activity, bone marrow precursor cells were thawed and seeded at a density of 1×10^5 cells per well in BioCoat Osteologic slides (BD Biosciences, San Jose, Calif.) in α-MEM media containing 10% FBS and antibiotics. After adhering overnight, media was removed and media containing 33 ng/mL hM-CSF and 9 ng/mL muRANKL (R & D systems, Minneapolis, Minn.) was added. The medium was changed every 3 days depending on acidification, and the assay was terminated as indicated. Recombinant human MSP was prepared and added daily as indicated. Cells were removed with 6% bleach and slides were viewed microscopically using phase-contrast with 20× magnification. Osteolytic resorption area within 5 representative fields was determined using Image J software, experiments were performed in triplicate. […]
# [4] = Ovariectomy-induced bone loss (osteoporosis study); format: in vivo; conditions: WT OVX mice, treatment from 1 day post-ovariectomy, analysis at 28 days
# Excerpt: Representative samples were imaged by micro-computed tomography (μCT, Skyscan) with volume rendering snapshots of the tibia. For the osteoporosis study, representative samples were imaged and presented as volume rendering snapshots of the axial view of the tibial metaphysis region. For bone mineral density (BMD) measurements, the right tibia was removed and fixed in 10% NBF overnight. The tibia were then scanned by dual-energy X-ray absorptiometry (DXA) using a Norland pDEXA densitometer (Norland Medical Systems, White Plains, N.Y.). A region including the primary and secondary spongiosa was used to determine the BMD of the tibia. […] For the osteoporosis study, mice were treated beginning on the day after ovary removal. The treatment regimen for OSI-296 was 200 mg/kg every other day by oral gavage. ASLAN002 was administered at 50 mg/kg every other day by oral gavage. Treatment continued until the time of sacrifice at 28 days. […] To investigate the role of the MSP/RON pathway in bone loss due to post-menopausal osteoporosis, ovariectomies were performed in WT and RonTK−/− mice and bone loss was analyzed by dual-energy X-ray absorptiometry (DXA) and bone histomorphometry 28 days later. […] WT OVX mice were treated with ASLAN002 beginning 1 day post-ovariectomy. Mice were sacrificed 28 days post-ovariectomy for analysis.
# [5] = test system: AKT; test: Western blot of osteoclast lysates, phospho-AKT; format: cell-based, mice; conditions: osteoclasts
# Experimental: as §1
# [6] = molecular target: RON (Homo sapiens, UniProt Q04912); conditions: from the cited IC50 values; cited from earlier work
# Chain of RON (Q04912 25-1400): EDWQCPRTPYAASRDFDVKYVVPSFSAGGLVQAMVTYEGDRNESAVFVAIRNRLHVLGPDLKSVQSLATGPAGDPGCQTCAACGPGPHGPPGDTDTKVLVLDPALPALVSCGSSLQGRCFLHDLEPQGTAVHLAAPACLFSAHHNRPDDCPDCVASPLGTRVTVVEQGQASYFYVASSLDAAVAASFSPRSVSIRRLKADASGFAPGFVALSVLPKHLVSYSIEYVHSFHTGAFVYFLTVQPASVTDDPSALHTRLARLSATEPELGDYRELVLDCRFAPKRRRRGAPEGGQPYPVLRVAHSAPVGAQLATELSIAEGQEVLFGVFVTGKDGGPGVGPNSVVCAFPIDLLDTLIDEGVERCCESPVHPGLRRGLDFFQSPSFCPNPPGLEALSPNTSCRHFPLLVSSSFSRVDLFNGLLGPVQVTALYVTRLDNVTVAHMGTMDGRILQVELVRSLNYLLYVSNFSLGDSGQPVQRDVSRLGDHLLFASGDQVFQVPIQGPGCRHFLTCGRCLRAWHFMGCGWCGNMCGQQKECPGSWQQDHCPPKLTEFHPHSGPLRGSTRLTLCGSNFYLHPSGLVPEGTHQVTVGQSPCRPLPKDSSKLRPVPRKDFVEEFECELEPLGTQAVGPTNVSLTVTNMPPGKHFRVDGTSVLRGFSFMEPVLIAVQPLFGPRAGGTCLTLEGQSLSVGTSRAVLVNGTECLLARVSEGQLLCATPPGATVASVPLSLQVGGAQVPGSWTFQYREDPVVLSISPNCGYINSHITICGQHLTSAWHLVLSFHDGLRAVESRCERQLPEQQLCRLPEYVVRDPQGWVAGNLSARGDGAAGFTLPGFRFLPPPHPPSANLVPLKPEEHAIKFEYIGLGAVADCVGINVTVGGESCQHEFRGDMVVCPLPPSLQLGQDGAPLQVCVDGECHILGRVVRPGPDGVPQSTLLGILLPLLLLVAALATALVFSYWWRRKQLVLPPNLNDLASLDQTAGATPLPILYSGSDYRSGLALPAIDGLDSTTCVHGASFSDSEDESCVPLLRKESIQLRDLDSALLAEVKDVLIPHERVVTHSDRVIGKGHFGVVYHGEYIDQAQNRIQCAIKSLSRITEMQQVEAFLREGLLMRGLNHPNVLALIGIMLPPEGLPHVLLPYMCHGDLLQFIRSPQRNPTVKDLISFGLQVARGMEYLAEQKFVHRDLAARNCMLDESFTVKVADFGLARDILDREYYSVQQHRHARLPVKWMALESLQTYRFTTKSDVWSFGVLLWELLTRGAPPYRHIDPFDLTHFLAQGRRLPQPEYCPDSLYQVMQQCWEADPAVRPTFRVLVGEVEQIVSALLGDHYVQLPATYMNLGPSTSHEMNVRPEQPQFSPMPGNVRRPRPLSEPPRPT
smiles,measurement,setting,value
CCOc1ccn(-c2ccc(F)cc2)c(=O)c1C(=O)Nc1ccc(Oc2ccnc(N)c2Cl)c(F)c1 [ASLAN002],women showing ≧25% decreases in CTX,[1]; 7/10 women,70%
same,patients exhibiting decreased CTX levels,"[1]; 11/18 Phase I patients, most 28 days of treatment",61%
same,men showing ≧25% decreases in CTX,[1]; number of men out of all men,0/8
same,patients with decreased CTX that had ≧25% reduction,"[1]; of the patients with decreased CTX, Mayo clinic response guideline",64%
same,ERK activity,[2],no effect
same,MSP-induced increase in osteoclast resorption (resorption area),[3],dramatically reduced
same,bone loss after ovary removal,[4],completely prevented bone loss
same,phosphorylated AKT,[5],decrease in phosphorylated AKT
same,selectivity between RON and Met,[6],more selective for RON
